From patent publication US20060264460A1 (Wyeth, priority 2005, published 2006)

Each compound was assayed against T1, human Cot/Tpl2 kinase (Homo sapiens, UniProt P41279) (assay: Tpl2/Cot kinase assay: GST-MEK1 phosphorylation detected by ELISA (DELFIA Eu)). Conditions: Table 2; Tpl2/Cot kinase, GST-MEK1 substrate, 50 uM ATP.
T1 construct: human Cot/Tpl2 kinase construct encoding residues 30-398; 6His (N); made in house; host or cells: Sf9 insect cells, baculovirus system (BD Biosciences)
Format: biochemical
Summary of the method: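 His-tagged human Tpl2 from Sf9 cells, Ni-affinity and size-exclusion purified (monomer). 0.4 nM Tpl2 with 35 nM GST-MEK1, 50 uM ATP, MOPS pH 7.2, 1% DMSO, 1 h at 30° C; EDTA stop. MEK1 Ser217/221 phosphorylation detected by anti-phospho-MEK1 and Eu-labelled secondary ELISA; IC50 fitted.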

T1 sequence (P41279 30-398): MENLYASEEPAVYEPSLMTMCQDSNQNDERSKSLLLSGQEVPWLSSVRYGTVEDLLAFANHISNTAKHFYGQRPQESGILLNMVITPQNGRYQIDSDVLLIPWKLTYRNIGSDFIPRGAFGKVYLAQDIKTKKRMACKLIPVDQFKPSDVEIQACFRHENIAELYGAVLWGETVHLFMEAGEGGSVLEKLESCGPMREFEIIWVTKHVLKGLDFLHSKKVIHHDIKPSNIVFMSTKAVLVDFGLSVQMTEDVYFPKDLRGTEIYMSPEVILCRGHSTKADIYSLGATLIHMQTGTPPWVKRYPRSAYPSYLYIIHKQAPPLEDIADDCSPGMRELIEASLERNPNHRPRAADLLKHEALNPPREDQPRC

Compound	IC50
N#Cc1cnc2c(Br)cc(NCc3cncn3CCN3CCOCC3)cc2c1Nc1ccc(F)c(Cl)c1 [Example 482]	0.16 µM
N#Cc1cnc2c(Cl)cc(NCc3nc[nH]n3)cc2c1Nc1ccc(F)c(Cl)c1 [Example 483]	0.1 µM
N#Cc1cnc2c(Cl)cc(NCc3cncn3CCN3CCOCC3)cc2c1Nc1ccc(F)c(Cl)c1 [Example 489]	0.062 µM
N#Cc1cnc2c(Cl)cc(NCc3cn(CCN4CCOCC4)cn3)cc2c1Nc1ccc(F)c(Cl)c1 [Example 490]	0.033 µM
N#Cc1cnc2c(Cl)cc(NCc3cn(CC(F)(F)F)nn3)cc2c1Nc1ccc(F)c(Cl)c1 [Example 491]	0.023 µM
CC(C)(C)OC(=O)N1CCC(n2cc(CNc3cc(Br)c4ncc(C#N)c(Nc5ccc(F)c(Cl)c5)c4c3)nn2)CC1 [Example 493]	0.25 µM
CC(C)(C)OC(=O)N1CCC(Cn2cc(CNc3cc(Br)c4ncc(C#N)c(Nc5ccc(F)c(Cl)c5)c4c3)nn2)CC1 [Example 494]	0.17 µM
CN1CCC(Cn2cc(CNc3cc(Br)c4ncc(C#N)c(Nc5ccc(F)c(Cl)c5)c4c3)nn2)CC1 [Example 499]	0.012 µM
CN(CCn1cc(CNc2cc(Br)c3ncc(C#N)c(Nc4ccc(F)c(Cl)c4)c3c2)nn1)C(=O)OC(C)(C)C [Example 500]	0.067 µM
CN(CCn1cc(CN(Cc2cn(CCN(C)C(=O)OC(C)(C)C)nn2)c2cc(Br)c3ncc(C#N)c(Nc4ccc(F)c(Cl)c4)c3c2)nn1)C(=O)OC(C)(C)C [Example 501]	4.7 µM
CN(CCn1cc(CNc2cc(Cl)c3ncc(C#N)c(Nc4ccc(F)c(Cl)c4)c3c2)nn1)C(=O)OC(C)(C)C [Example 502]	0.048 µM
CC(C)(C)OC(=O)N1CCC(CCn2cc(CNc3cc(Br)c4ncc(C#N)c(Nc5ccc(F)c(Cl)c5)c4c3)nn2)CC1 [Example 503]	0.13 µM
CC(C)(C)OC(=O)N1CCC(CCn2cc(CNc3cc(Cl)c4ncc(C#N)c(Nc5ccc(F)c(Cl)c5)c4c3)nn2)CC1 [Example 504]	0.075 µM
CN1CCC(Cn2cc(CN(C)c3cc(Br)c4ncc(C#N)c(Nc5ccc(F)c(Cl)c5)c4c3)nn2)CC1 [Example 505]	0.29 µM
CN1CCC(n2cc(CN(C)c3cc(Br)c4ncc(C#N)c(Nc5ccc(F)c(Cl)c5)c4c3)nn2)CC1 [Example 506]	0.022 µM
CC(C)(C)OC(=O)N1CCC(CCn2cc(CN(Cc3cn(CCC4CCN(C(=O)OC(C)(C)C)CC4)nn3)c3cc(Br)c4ncc(C#N)c(Nc5ccc(F)c(Cl)c5)c4c3)nn2)CC1 [Example 509]	> 3 µM
CNCCn1cc(CNc2cc(Cl)c3ncc(C#N)c(Nc4ccc(F)c(Cl)c4)c3c2)nn1 [Example 513]	0.029 µM
CN(C)CCCn1cc(CNc2cc(Cl)c3ncc(C#N)c(Nc4ccc(F)c(Cl)c4)c3c2)nn1 [Example 514]	0.039 µM
N#Cc1cnc2c(Cl)cc(NCc3cn(CCN4CCCC4)nn3)cc2c1Nc1ccc(F)c(Cl)c1 [Example 515]	0.04 µM
N#Cc1cnc2c(Br)cc(NCc3cn(CCC4CCNCC4)nn3)cc2c1Nc1ccc(F)c(Cl)c1 [Example 517]	0.09 µM

Compound	IC50
CN1CCC(CCn2cc(CNc3cc(Br)c4ncc(C#N)c(Nc5ccc(F)c(Cl)c5)c4c3)nn2)CC1 [Example 520]	0.044 µM
CN1CCC(CCn2cc(CNc3cc(Cl)c4ncc(C#N)c(Nc5ccc(F)c(Cl)c5)c4c3)nn2)CC1 [Example 521]	0.038 µM
N#Cc1cnc2c(Br)cc(NCc3cn(CCS(=O)(=O)C4CCCC4)nn3)cc2c1Nc1ccc(F)c(Cl)c1 [Example 524]	0.053 µM
CS(=O)(=O)N1CCC(n2cc(CNc3cc(Br)c4ncc(C#N)c(Nc5ccc(F)c(Cl)c5)c4c3)nn2)CC1 [Example 525]	0.0011 µM
Fc1ccc(Nc2ncncc2-c2ccc(NCc3cnc[nH]3)cc2)cc1Cl [Example 527]	> 3 µM
N#Cc1cncc(-c2ccccc2NCc2cnc[nH]2)c1Nc1ccc(F)c(Cl)c1 [Example 534]	> 3 µM
Fc1ccc(Nc2ncncc2-c2cccc(NCc3cnc[nH]3)c2)cc1Cl [Example 535]	> 3 µM
Fc1ccc(Nc2ncncc2-c2ccccc2NCc2cnc[nH]2)cc1Cl [Example 536]	> 3 µM
N#Cc1cnc2c(Br)cc(NCc3cc(C4CCNCC4)n[nH]3)cc2c1Nc1ccc(F)c(Cl)c1 [Example 537]	0.8 µM
N#Cc1cnc2c(Br)cc(NCc3cn(CCCN4CCCCC4)nn3)cc2c1Nc1ccc(F)c(Cl)c1 [Example 538]	0.0034 µM
N#Cc1cnc2c(Cl)cc(NCc3cn(CCCN4CCCCC4)nn3)cc2c1Nc1ccc(F)c(Cl)c1 [Example 539]	0.0011 µM
CC(C)(C)OC(=O)N1CCCC(Cn2cc(CNc3cc(Br)c4ncc(C#N)c(Nc5ccc(F)c(Cl)c5)c4c3)nn2)C1 (stereo not shown) [Example 540]	0.12 µM
CC(C)(C)OC(=O)N1CCCC(Cn2cc(CNc3cc(Cl)c4ncc(C#N)c(Nc5ccc(F)c(Cl)c5)c4c3)nn2)C1 (stereo not shown) [Example 541]	0.25 µM
CC(C)(C)CN1CCC(n2cc(CNc3cc(Br)c4ncc(C#N)c(Nc5ccc(F)c(Cl)c5)c4c3)nn2)CC1 [Example 542]	0.19 µM
CC(C)(C)OC(=O)N1CCCC1Cn1cc(CNc2cc(Cl)c3ncc(C#N)c(Nc4ccc(F)c(Cl)c4)c3c2)nn1 (stereo not shown) [Example 543]	0.32 µM
N#Cc1cnc2c(Cl)cc(NCc3cn(CC4CCCNC4)nn3)cc2c1Nc1ccc(F)c(Cl)c1 (stereo not shown) [Example 546]	0.048 µM
CC(=O)N1CCC(n2cc(CNc3cc(Br)c4ncc(C#N)c(Nc5ccc(F)c(Cl)c5)c4c3)nn2)CC1 [Example 547]	0.0061 µM
N#Cc1cnc2c(Br)cc(NCc3cc([C@@H]4CCCN4)n[nH]3)cc2c1Nc1ccc(F)c(Cl)c1 [Example 555]	0.33 µM
COCCn1cc(CNc2cc(Cl)c3ncc(C#N)c(Nc4ccc(F)c(Cl)c4)c3c2)nn1 [Example 562]	0.02 µM

Continued, values first:

IC50	Compound
0.11 µM	N#Cc1cnc2c(Br)cc(NCc3nc[nH]n3)cc2c1Nc1ccc(F)c(Cl)c1 [Example 484]
0.2 µM	Cn1cnc(CNc2cc(Br)c3ncc(C#N)c(Nc4ccc(F)c(Cl)c4)c3c2)n1 [Example 486]
0.011 µM	CC(O)Cn1cc(CNc2cc(Br)c3ncc(C#N)c(Nc4ccc(F)c(Cl)c4)c3c2)nn1 (stereo not shown) [Example 487]
0.041 µM	N#Cc1cnc2c(Br)cc(NCc3cn(CCN4CCOCC4)cn3)cc2c1Nc1ccc(F)c(Cl)c1 [Example 488]
0.0048 µM	N#Cc1cnc2c(Br)cc(NCc3cn(Cc4ccncc4)nn3)cc2c1Nc1ccc(F)c(Cl)c1 [Example 495]
0.047 µM	N#Cc1cnc2c(Br)cc(NCc3cn(CC4CCNCC4)nn3)cc2c1Nc1ccc(F)c(Cl)c1 [Example 496]
0.1 µM	N#Cc1cnc2c(Br)cc(NCc3cn(CC(F)(F)F)nn3)cc2c1Nc1ccc(F)c(Cl)c1 [Example 498]
0.0621 µM	COCCCc1nc[nH]c1CNc1cc(Br)c2ncc(C#N)c(Nc3ccc(F)c(Cl)c3)c2c1 [Example 507]
0.082 µM	CSCCn1cc(CNc2cc(Br)c3ncc(C#N)c(Nc4ccc(F)c(Cl)c4)c3c2)nn1 [Example 508]
0.028 µM	N#Cc1cnc2c(Br)cc(NCc3cn(CCO)nn3)cc2c1Nc1ccc(F)c(Cl)c1 [Example 510]
0.091 µM	CS(=O)(=O)CCn1cc(CNc2cc(Br)c3ncc(C#N)c(Nc4ccc(F)c(Cl)c4)c3c2)nn1 [Example 511]
0.038 µM	CNCCn1cc(CNc2cc(Br)c3ncc(C#N)c(Nc4ccc(F)c(Cl)c4)c3c2)nn1 [Example 512]
0.018 µM	COCCn1cc(CNc2cc(Br)c3ncc(C#N)c(Nc4ccc(F)c(Cl)c4)c3c2)nn1 [Example 522]
0.018 µM	N#Cc1cnc2c(Br)cc(NCc3cn(CCCO)nn3)cc2c1Nc1ccc(F)c(Cl)c1 [Example 523]
0.28 µM	N#Cc1cnc2c(Br)cc(NCc3cnc4ccccn34)cc2c1Nc1ccc(F)c(Cl)c1 [Example 526]
0.11 µM	N#Cc1cnc2c(Br)cc(NCc3cnc4cnccn34)cc2c1Nc1ccc(F)c(Cl)c1 [Example 528]

IC50	Compound
0.043 µM	CS(=O)(=O)CCn1cnc(CNc2cc(Br)c3ncc(C#N)c(Nc4ccc(F)c(Cl)c4)c3c2)c1 [Example 529]
0.012 µM	CSCn1cc(CNc2cc(Br)c3ncc(C#N)c(Nc4ccc(F)c(Cl)c4)c3c2)nn1 [Example 530]
0.033 µM	CS(=O)(=O)Cn1cc(CNc2cc(Br)c3ncc(C#N)c(Nc4ccc(F)c(Cl)c4)c3c2)nn1 [Example 531]
0.12 µM	C[S+]([O-])Cn1cc(CNc2cc(Br)c3ncc(C#N)c(Nc4ccc(F)c(Cl)c4)c3c2)nn1 (stereo not shown) [Example 532]
0.0031 µM	N#Cc1cnc2c(Br)cc(NCc3cn(Cc4cccnc4)cn3)cc2c1Nc1ccc(F)c(Cl)c1 [Example 533]
0.033 µM	N#Cc1cnc2c(Br)cc(NCc3cn(CC4CCCNC4)nn3)cc2c1Nc1ccc(F)c(Cl)c1 (stereo not shown) [Example 545]
0.034 µM	CN1CCCC1CCn1cnc(CNc2cc(Br)c3ncc(C#N)c(Nc4ccc(F)c(Cl)c4)c3c2)c1 (stereo not shown) [Example 548]
0.0092 µM	N#Cc1cnc2c(Br)cc(NCc3cn(CC4CCCN4)nn3)cc2c1Nc1ccc(F)c(Cl)c1 (stereo not shown) [Example 550]
0.0048 µM	C=CCn1cnc(CNc2cc(Br)c3ncc(C#N)c(Nc4ccc(F)c(Cl)c4)c3c2)c1 [Example 551]
0.0007 µM	N#Cc1cnc2c(Cl)cc(NCc3cn(Cc4cccnc4)cn3)cc2c1Nc1ccc(F)c(Cl)c1 [Example 553]
0.023 µM	N#Cc1cnc2c(Br)cc(NCc3cn(-c4ccncc4)cn3)cc2c1Nc1ccc(F)c(Cl)c1 [Example 554]
0.0034 µM	N#Cc1cnc2c(Br)cc(NCc3cn(CCc4ccccn4)nn3)cc2c1Nc1ccc(F)c(Cl)c1 [Example 558]
0.0055 µM	N#Cc1cnc2c(Br)cc(NCc3cn(-c4ccncc4)nn3)cc2c1Nc1ccc(F)c(Cl)c1 [Example 559]
0.02 µM	C=CCn1cc(CNc2cc(Br)c3ncc(C#N)c(Nc4ccc(F)c(Cl)c4)c3c2)nn1 [Example 561]
0.025 µM	N#Cc1cnc2c(Cl)cc(NCc3cn(CCc4ccccn4)nn3)cc2c1Nc1ccc(F)c(Cl)c1 [Example 563]
